Assay results from patent publication US10828316B2, “Method of treating bacterial infections” (priority 2016, dated 2020).
≈ marks a conversion by molar mass, not a printed value. Read-outs that look alike come from different tables or passages of the source.

Tests used:
S. flexneri APV00906 = assay: MIC; type: cell-based; conditions: Shigella flexneri
S. flexneri APV00907 = assay: MIC; type: cell-based; conditions: Shigella flexneri
S. sonnei APV00908 = assay: MIC; type: cell-based; conditions: Shigella sonnei
E. coli = conditions: Ciprofloxacin 14 mg/kg; single mice
K. pneumoniae EN0262 = conditions: commercial antibiotics, data provided by IMBIM, BMC, Uppsala University; cited from earlier work
E. coli EN001 = assay: MIC; type: cell-based, Escherichia coli
K. pneumoniae EN011 = assay: MIC; type: cell-based, Klebsiella pneumoniae; conditions: Klebsiella pneumoniae
E. coli EN013 = assay: MIC; type: cell-based, Escherichia coli; conditions: Escherichia coli
P. aeruginosa EN015 = assay: MIC; type: cell-based, Pseudomonas aeruginosa; conditions: Pseudomonas aeruginosa
E. coli EN0001 = assay: MIC; type: cell-based; conditions: in didanosine+trimethoprim+uridine combination
K. pneumoniae EN0006 = assay: MIC; type: cell-based; conditions: in didanosine+trimethoprim+uridine combination
P. aeruginosa EN0004 = assay: MIC; type: cell-based; conditions: in didanosine+trimethoprim+uridine combination
A. baumannii EN0007 = assay: MIC; type: cell-based, A. baumanii; conditions: in didanosine+trimethoprim+uridine combination
E. coli strain no 2 = assay: MIC; conditions: Escherichia coli, NO2, read-out: MIC Didanosine, E. coli strain 2
S. marescens EN0454 = assay: MIC; type: cell-based, Serratia marescens; conditions: Serratia, Combination 2, read-out: MIC, thymidine concentration
M. luteus EN0455 = assay: MIC; type: cell-based, Micrococcus luteus; conditions: Micrococcus luteus, Combination 2, read-out: MIC, thymidine concentration
P. mirabilis EN0457 = assay: MIC; type: cell-based, Proteus mirabilis; conditions: Proteus mirabilis, Combination 2, read-out: MIC, thymidine concentration
E. coli B EN0458 = assay: MIC; type: cell-based, Escherichia coli B; conditions: Escherichia coli, BEN0458, Combination 2, read-out: MIC, thymidine concentration
P. aeruginosa EN0459 = assay: MIC; type: cell-based, Pseudomonas aeruginosa; conditions: Pseudomonas aeruginosa, Combination 2, read-out: MIC, thymidine concentration
P. aeruginosa EN0460 = assay: MIC; type: cell-based, Pseudomonas aeruginosa; conditions: Pseudomonas aeruginosa, Combination 2, read-out: MIC, thymidine concentration
E. aerogenes EN0461 = assay: MIC; type: cell-based, Enterobacter aerogenes; conditions: Klebsiella aerogenes, Combination 2, read-out: MIC, thymidine concentration
K. pneumoniae EN0463 = assay: MIC; type: cell-based, Klebsiella pneumoniae; conditions: Klebsiella pneumoniae, Combination 2, read-out: MIC, thymidine concentration
S. epidermidis EN0456 = assay: MIC; type: cell-based, Staphylococcus epidermidis; conditions: Staphylococcus epidermidis, Combination 2, read-out: MIC, thymidine concentration
Citrobacter sp. EN0465 = assay: MIC; type: cell-based; conditions: Combination 2, read-out: MIC, thymidine concentration
S. typhimurium EN0466 = assay: MIC; type: cell-based, Salmonella typhimurium; conditions: Salmonella enterica, Combination 2, read-out: MIC, thymidine concentration
[1] = system: A. pittii or A. nosocomialis EN0180; assay: MIC; type: cell-based, Acinetobacter pittii or nosocomialis; conditions: Combination 2, read-out: MIC, thymidine concentration
K. oxytoca EN0392 = assay: MIC; type: cell-based, Klebsiella oxytoca; conditions: Klebsiella oxytoca, Combination 2, read-out: MIC, thymidine concentration
P. aeruginosa EN0422 = assay: MIC; type: cell-based, Pseudomonas aeruginosa; conditions: Pseudomonas aeruginosa, Combination 2, read-out: MIC, thymidine concentration
P. mirabilis ST19 EN0445 = assay: MIC; type: cell-based, Proteus mirabilis; conditions: Proteus mirabilis, ST19EN0445, Combination 2, read-out: MIC, thymidine concentration
E. coli EN002 = assay: MIC; type: cell-based, Escherichia coli; conditions: Escherichia coli, Combination 2, read-out: MIC, thymidine concentration
E. coli EN003 = assay: MIC; type: cell-based, Escherichia coli; conditions: Escherichia coli, Combination 2, read-out: MIC, thymidine concentration
P. aeruginosa EN004 = assay: MIC; type: cell-based, Pseudomonas aeruginosa; conditions: Pseudomonas aeruginosa, Combination 2, read-out: MIC, thymidine concentration
P. aeruginosa EN005 = assay: MIC; type: cell-based, Pseudomonas aeruginosa; conditions: Pseudomonas aeruginosa, Combination 2, read-out: MIC, thymidine concentration
K. pneumoniae EN006 = assay: MIC; type: cell-based, Klebsiella pneumoniae; conditions: Klebsiella pneumoniae, Combination 2, read-out: MIC, thymidine concentration
A. baumannii EN007 = assay: MIC; type: cell-based, Acinetobacter baumannii; conditions: Acinetobacter baumannii, Combination 2, read-out: MIC, thymidine concentration
S. aureus EN008 = assay: MIC; type: cell-based, Staphylococcus aureus; conditions: Staphylococcus aureus, Combination 2, read-out: MIC, thymidine concentration
K. pneumoniae EN010 = assay: MIC; type: cell-based, Klebsiella pneumoniae; conditions: Klebsiella pneumoniae, Combination 2, read-out: MIC, thymidine concentration
E. coli EN012 = assay: MIC; type: cell-based, Escherichia coli; conditions: Escherichia coli, Combination 2, read-out: MIC, thymidine concentration
P. aeruginosa EN014 = assay: MIC; type: cell-based, Pseudomonas aeruginosa; conditions: Pseudomonas aeruginosa, Combination 2, read-out: MIC, thymidine concentration
A. baumannii EN016 = assay: MIC; type: cell-based, Acinetobacter baumannii; conditions: Acinetobacter baumannii, Combination 2, read-out: MIC, thymidine concentration
A. baumannii EN017 = assay: MIC; type: cell-based, Acinetobacter baumannii; conditions: Acinetobacter baumannii; A. baumannii EN017; Combination 2; read-out: MIC, thymidine concentration
[2] = S. flexneri APV00906, read-out: Antibiogram MIC
[3] = S. flexneri APV00907, read-out: Antibiogram MIC
[4] = S. sonnei APV00908, read-out: Antibiogram MIC

## O=C(O)c1cn(C2CC2)c2cc(N3CCNCC3)c(F)cc2c1=O [ciprofloxacin]
S. flexneri APV00906; [2]
  MIC: ≤ 0.25 mg/L
S. flexneri APV00907; [3]
  MIC: ≤ 0.5 mg/L
S. sonnei APV00908; [4]
  MIC: ≤ 0.5 mg/L
E. coli
  score at sampling: 0
K. pneumoniae EN0262
  MIC: >2 mg/L

## CN(C)c1cc(NC(=O)CNC(C)(C)C)c(O)c2c1C[C@H]1C[C@H]3[C@H](N(C)C)C(O)=C(C(N)=O)C(=O)[C@@]3(O)C(O)=C1C2=O [tigecycline]
S. flexneri APV00906; [2]
  MIC: ≤ 0.5 mg/L
S. flexneri APV00907; [3]
  MIC: ≤ 0.5 mg/L
S. sonnei APV00908; [4]
  MIC: ≤ 0.5 mg/L
K. pneumoniae EN0262
  MIC: 2 mg/L (≈ 3.41 µM)

## O=c1[nH]cnc2c1ncn2[C@H]1CC[C@@H](CO)O1 [Didanosine, didanosine]
E. coli EN001; in didanosine+trimethoprim+uridine combination
  MIC: 0.125 mg/L
K. pneumoniae EN011; EN011, K. pneumoniae EN011, in didanosine+trimethoprim+uridine combination
  MIC: 0.125 mg/L
E. coli EN013; EN013, E. coli EN013, in didanosine+trimethoprim+uridine combination
  MIC: 0.016 mg/L
P. aeruginosa EN015; EN015, P. aeruginosa EN015, in didanosine+trimethoprim+uridine combination
  MIC: 1 mg/L
E. coli EN0001
  MIC: 0.25 mg/L
K. pneumoniae EN0006
  MIC: 0.5 mg/L
P. aeruginosa EN0004
  MIC: >4 mg/L
A. baumannii EN0007
  MIC: >4 mg/L
E. coli strain no 2; trimethoprim 0, uridine 0 μg/ml
  MIC: > 30 mg/L
E. coli strain no 2; trimethoprim 0, uridine 10 μg/ml
  MIC: > 30 mg/L
E. coli strain no 2; trimethoprim 0, uridine 100 μg/ml
  MIC: > 30 mg/L
E. coli strain no 2; trimethoprim 1 μg/ml, uridine 0 μg/ml
  MIC: > 2.5 mg/L
E. coli strain no 2; trimethoprim 1 μg/ml, uridine 10 μg/ml
  MIC: > 2.5 mg/L
E. coli strain no 2; trimethoprim 2 μg/ml, uridine 0 μg/ml
  MIC: > 2.5 mg/L
E. coli strain no 2; trimethoprim 2 μg/ml, uridine 10 μg/ml
  MIC: > 2.5 mg/L

## Cc1cn([C@H]2C[C@H](O)[C@@H](CO)O2)c(=O)[nH]c1=O [Thymidine, thymidine]
S. marescens EN0454
  MIC: > 120 µM
M. luteus EN0455
  MIC: > 120 µM
P. mirabilis EN0457
  MIC: > 120 µM
E. coli B EN0458
  MIC: < 0.2 µM
P. aeruginosa EN0459
  MIC: > 120 µM
P. aeruginosa EN0460
  MIC: > 120 µM
E. aerogenes EN0461
  MIC: 60 µM
K. pneumoniae EN0463
  MIC: 8 µM
S. epidermidis EN0456
  MIC: 60 µM
Citrobacter sp. EN0465
  MIC: > 120 µM
S. typhimurium EN0466
  MIC: 15 µM
[1]
  MIC: > 120 µM
K. oxytoca EN0392
  MIC: 15 µM
P. aeruginosa EN0422
  MIC: > 120 µM
P. mirabilis ST19 EN0445
  MIC: > 120 µM
E. coli EN001; Escherichia coli, Combination 2, read-out: MIC, thymidine concentration
  MIC: 30 µM
E. coli EN002
  MIC: 4 µM
E. coli EN003
  MIC: < 0.2 µM
P. aeruginosa EN004
  MIC: > 120 µM
P. aeruginosa EN005
  MIC: 30 µM
K. pneumoniae EN006
  MIC: 15 µM
A. baumannii EN007
  MIC: > 120 µM
S. aureus EN008
  MIC: > 120 µM
K. pneumoniae EN010
  MIC: 30 µM
K. pneumoniae EN011; K. pneumoniae EN011, Combination 2, read-out: MIC, thymidine concentration
  MIC: 8 µM
E. coli EN012
  MIC: < 0.2 µM
E. coli EN013; E. coli EN013, Combination 2, read-out: MIC, thymidine concentration
  MIC: < 0.2 µM
P. aeruginosa EN014
  MIC: > 120 µM
P. aeruginosa EN015; P. aeruginosa EN015, Combination 2, read-out: MIC, thymidine concentration
  MIC: 60 µM
A. baumannii EN016
  MIC: > 120 µM
A. baumannii EN017
  MIC: 30 µM

## C[C@@H](O)[C@H]1C(=O)N2C(C(=O)O)=C(SCCN=CN)C[C@H]12 [imipenem]
S. flexneri APV00906; [2]
  MIC: ≤ 0.25 mg/L
S. flexneri APV00907; [3]
  MIC: ≤ 0.25 mg/L
S. sonnei APV00908; [4]
  MIC: ≤ 0.25 mg/L

## CC1(C)S[C@@H]2[C@H](NC(=O)[C@H](N)c3ccccc3)C(=O)N2[C@H]1C(=O)O [ampicillin]
K. pneumoniae EN0262
  MIC: >128 mg/L

## CC(C)(O/N=C(\C(=O)N[C@@H]1C(=O)N2C(C(=O)[O-])=C(C[n+]3ccccc3)CS[C@H]12)c1csc(N)n1)C(=O)O [ceftazidime]
S. flexneri APV00906; [2]
  MIC: 16 mg/L (≈ 29.3 µM)
S. flexneri APV00907; [3]
  MIC: ≤ 1 mg/L
S. sonnei APV00908; [4]
  MIC: ≤ 1 mg/L
K. pneumoniae EN0262
  MIC: >32 mg/L

## CO/N=C(\C(=O)N[C@@H]1C(=O)N2C(C(=O)O)=C(COC(C)=O)CS[C@H]12)c1csc(N)n1 [cefotaxime]
S. flexneri APV00906; APV00906, read-out: Antibiogram MIC
  MIC: ≥ 64 mg/L
S. flexneri APV00907; APV00907, read-out: Antibiogram MIC
  MIC: ≤ 1 mg/L
S. sonnei APV00908; APV00908, read-out: Antibiogram MIC
  MIC: ≤ 1 mg/L
K. pneumoniae EN0262
  MIC: >32 mg/L

## perfloxacin
K. pneumoniae EN0262
  MIC: >16 mg/L

## CO/N=C(\C(=O)N[C@@H]1C(=O)N2C(C(=O)[O-])=C(C[N+]3(C)CCCC3)CS[C@H]12)c1csc(N)n1 [cefepime]
S. flexneri APV00906; [2]
  MIC: 2 mg/L (≈ 4.16 µM)
S. flexneri APV00907; [3]
  MIC: ≤ 1 mg/L
S. sonnei APV00908; [4]
  MIC: ≤ 1 mg/L
K. pneumoniae EN0262
  MIC: >16 mg/L
